Values quoted from earlier work, collected in patent US11311853B2, “Process for the preparation of double crosslinked core-shell polymeric nanoparticles for multimodal imaging and theranostic applications” (FONDAZIONE ISTITUTO ITALIANO DI TECNOLOGIA, priority 2017, dated 2022).

Conditions: commercial Gd-DTPA

relaxivity in MRI: 4 mM⁻¹ s⁻¹
SMILES: O=C([O-])CN(CCN(CC(=O)[O-])CC(=O)O)CCN(CC(=O)[O-])CC(=O)O.[Gd+3] [Gd-DTPA, Gd-diethylenetriaminepentaacetic acid]
